Measured values: article PMC8348110, “A Novel Peptide Derived from the Transmembrane Domain of Romo1 Is a Promising Candidate for Sepsis Treatment and Multidrug-Resistant Bacteria” (International Journal of Molecular Sciences, 2021)
In brackets after ≈: the same amount, converted by molar mass. Residues, ends and D or L forms follow the SMILES beside them.

Assays:
[1] = tested on: Acinetobacter baumannii ATCC 19606; experiment: Modified MBC determination; type: cell-based; conditions: Table 2
Method: (§1) The minimum bactericidal concentration (MBC) was determined as previously described with minor modifications. Briefly, bacteria were cultured in the mid-log phase and diluted to 5 × 10^5 colony-forming unit (CFU)/mL in 10 mM sodium phosphate buffer (pH 7.4) with a 1% volume of TS broth. They were incubated for 1 h with various peptides which were two-fold diluted serially from 64 μg/mL to 0 μg/mL concentrations in a 96-well plate. The samples were inoculated TS agar plate and incubated overnight at 37 °C. The value of MBC was determined at the lowest concentrations at which no colonies were identified.
(§2) We used the CFU counting method to measure antibacterial activity, with all bacteria cultured to the mid-log phase in an appropriate broth medium. Bacterial CFUs were counted after overnight culture at 37 °C on TS or LB agar plates. The MBC value and antibacterial activity in blood components were determined as previously described. Mouse and human whole blood were collected and diluted with PBS (pH 7.4) to measure the ex vivo antibacterial activity of AMPR-22. For that test, AMPR-22 (10 μg) was added to each whole blood solution and incubated at 37 °C with shaking at 200 rpm. At each time point, it was incubated with bacteria (1 × 10^3 CFU) for 30 min. Each sample was inoculated on an LB agar plate, and CFU counting was performed. To measure the in vivo activity of AMPR-22, 1 × 10^8 CFU of bacteria were injected into BALB/c mice, and an hour later, 10 mg/kg of the test peptides were injected. Blood samples were collected by tail cut, serially diluted with PBS (pH 7.4), and inoculated on LB-agar plates, followed by CFU counting. To estimate the functional half-life of AMPR-22, 40 mg/kg of each tested peptide were injected into mice. Whole blood sampling was performed by cardiac puncture, and the plasma was isolated by centrifugation (2000× g, 15 min). The isolated plasma was incubated with bacteria (1 × 10^3 CFU) for an hour, and then the CFU counting method was performed.

[2] = tested on: Bacillus subtilis ATCC 6633; experiment: Modified MBC determination; type: cell-based; conditions: Table 2
Method: as §1, §2

[3] = tested on: Enterobacter aerogenes ATCC 13048; experiment: Modified MBC determination; type: cell-based; conditions: Table 2
Method: as §1, §2

[4] = tested on: Enterococcus faecalis ATCC 19433; experiment: Modified MBC determination; type: cell-based; conditions: Table 2
Method: as §1, §2

[5] = tested on: Enterococcus faecium ATCC 19434; experiment: Modified MBC determination; type: cell-based; conditions: Table 2
Method: as §1, §2

[6] = tested on: Escherichia coli ATCC 25922; experiment: Modified MBC determination; type: cell-based; conditions: Table 2
Method: as §1, §2

[7] = tested on: Klebsiella pneumoniae ATCC 13883; experiment: Modified MBC determination; type: cell-based; conditions: Table 2
Method: as §1, §2

[8] = tested on: Streptomyces sindenensis ATCC 23963; experiment: Modified MBC determination; type: cell-based; conditions: Table 2
Method: as §1, §2

[9] = tested on: HeLa cells; type: cell-based, human
Method: Mammalian cell viability was measured using a 3-(4,5-dimethylthiazol-2-yl)-2,5-diphenyltetrazolium bromide (MTT) assay in HeLa and HEK 293 cells. Cells were cultured on 96-well plates and incubated separately with AMPR-11, AMPR-21, AMPR-22, magainin 2, or daptomycin. After incubation for an hour, the cells were incubated with MTT solution (2 mg/mL of MTT in PBS) for an hour, and the media were removed, and dimethyl sulfoxide was added to allow the MTT formazans to solubilize. The optical density was measured using a SpectraMax Plus 384 microplate reader (Molecular Devices, San Jose, CA, USA) at 550 nm.

[10] = tested on: human erythrocytes; experiment: Hemolysis assay; type: cell-based; conditions: 2% erythrocytes in PBS, 1 h 37 °C, absorbance 550 nm; up to / at 256 µg/mL
Method: (§3) For the hemolytic assay, mouse and human whole blood was diluted with PBS (pH 7.4) and centrifuged for 10 min at 500× g. After removing the supernatant and rinsing the pellet three times with PBS, we resuspended the erythrocytes in PBS at 2% volume. The blood solution was added to the solution of peptides with two-fold serial dilution on a 96-well plate. After incubation for an hour at 37 °C, the plate was centrifuged at 2500× g for 10 min, and the absorbance of the supernatant was measured at 550 nm. The PBS-treated sample was the negative control, and the 0.1% Triton X-100–treated sample was the positive control. To measure white blood cell toxicity, mouse and human PBMCs were freshly isolated as previously described, and 70% ethanol (positive control) or AMPR-22 was administered using two-fold diluted concentrations (0 to 256 μg/mL) for 30 min. To measure cell death, a LIVE/DEAD® fixable green dead cell stain kit (Thermo Fisher Scientific, Waltham, MS, USA) was used following the manufacturer′s instructions, and flow cytometry was performed using a FACS Canto II (BD Biosciences, CA, USA). The toxicity of AMPR-22 was compared with negative (PBS-treated) and positive controls, and the data were analyzed using FlowJo software (Tree Star, OR, USA).

[11] = tested on: mouse erythrocytes; experiment: Hemolysis assay; type: cell-based; conditions: 2% erythrocytes in PBS, 1 h 37 °C, absorbance 550 nm; concentrations up to 256 µg/mL
Method: as §3

[12] = tested on: human PBMCs; experiment: White blood cell toxicity assay (LIVE/DEAD stain, flow cytometry); type: cell-based; conditions: freshly isolated PBMCs, 0 to 256 μg/mL for 30 min
Method: as §3

[13] = tested on: mouse PBMCs; experiment: as above; type: cell-based; conditions: freshly isolated PBMCs, 0 to 256 μg/mL for 30 min
Method: as §3

[14] = tested on: BALB/c mice; experiment: In vivo toxicity, single intravenous dose; design: species or system mouse; conditions: 100 mg/kg single intravenous dose, tracked for 15 days, compared with PBS-treated mice
Method: We compared the toxicity of AMPR-22 in mammalian cells with that of AMPR-11 and AMPR-21. […] To investigate the toxicity of AMPR-22 to white blood cells, we isolated fresh peripheral blood mononuclear cells (PBMCs) from humans and mice. […] To check for in vivo toxicity before administering AMPR-22 to mice in a murine model of sepsis, we intravenously injected 100 mg/kg single dose of AMPR-22 (10-fold higher than the working dose) into BALB/c mice and tracked them for 15 days.
Figure 3 The cytotoxicity of AMPR-22. (A) The cell toxicity of the AMPR-11 analog peptides was measured using the MTT assay in HeLa and HEK293 cells. Daptomycin and magainin 2 were also tested. (B) A hemolysis assay was performed in mouse and human blood. The percentage of hemolyzed erythrocytes was measured using a spectrophotometer. Peptides were serially diluted and incubated with cells for an hour. (C) The toxicity of leukocytes was measured using a flow cytometric assay with LIVE/DEAD fixable dead cell™ stain dye and freshly isolated mouse and human PBMCs. […] Data represent the means ± SD of more than three independent experiments.

CC[C@H](C)[C@H](NC(=O)CNC(=O)CNC(=O)[C@@H](NC(=O)[C@H](C)NC(=O)[C@H](CCSC)NC(=O)[C@H](Cc1ccccc1)NC(=O)[C@@H](NC(=O)CNC(=O)[C@H](Cc1ccccc1)NC(=O)[C@H](CCCCN)NC(=O)CNC(=O)CNC(=O)[C@H](CCCCN)NC(=O)[C@H](CCCCN)NC(=O)[C@H](CCSC)NC(=O)[C@H](CCSC)NC(=O)[C@H](CCCCN)NC(=O)[C@@H](N)CCCCN)[C@@H](C)O)[C@@H](C)CC)C(=O)N[C@@H](CCCNC(=N)N)C(=O)O [AMPR-22] (H-KKMMKKGGKFGTFMAIGGIR-OH)
MBC Value, Acinetobacter baumannii [1]: 1 µg/mL (≈ 0.457 µM) | MBC Value, Bacillus subtilis [2]: 1 µg/mL (≈ 0.457 µM) | MBC Value, Enterobacter aerogenes [3]: 2 µg/mL (≈ 0.915 µM) | MBC Value, Enterococcus faecalis [4]: 4 µg/mL (≈ 1.83 µM) | MBC Value, Enterococcus faecium [5]: 4 µg/mL (≈ 1.83 µM) | MBC Value, Escherichia coli [6]: 1 µg/mL (≈ 0.457 µM) | MBC Value, Klebsiella pneumoniae [7]: 1 µg/mL (≈ 0.457 µM) | MBC Value, Streptomyces sindenensis [8]: 2 µg/mL (≈ 0.915 µM) | Cytotoxicity, HeLa cells [9]: slight cytotoxicity | Hemolytic activity against human erythrocytes [10]: negligible hemolytic activity | Hemolytic activity against mouse erythrocytes [11]: relatively endurable hemolysis properties | Cytotoxic activity against human leukocytes [12]: negligible cytotoxic activity | Cytotoxic activity against mouse leukocytes [13]: negligible cytotoxic activity | In vivo toxicity (weight loss or death) [14]: No significant changes
